The source made the active and inactive calls. The calls are words filed in the database; no cut-off is given here.
Legend:
[1] = system: 9KB; assay: Cytotoxicity against human 9KB cells; format: functional, cell-based
[2] = system: P388; assay: In vivo antitumor activity against mouse P388 cells at 400 mg/kg; format: functional
[3] = system: L1210; assay: Cytotoxicity against mouse L1210 cells; format: functional, cell-based
[4] = system: CCRF S-180; assay: Cytotoxicity against mouse S180 cells; format: functional, cell-based
[5] = system: CA-755; assay: In vivo antitumor activity against mouse CA-755 cells at 100 mg/kg; format: functional
[6] = system: P388; assay: In vivo antitumor activity against mouse P388 cells at 10 mg/kg; format: functional
[7] = system: Lewis lung carcinoma cell line; assay: In vivo antitumor activity against mouse LLC at 1.25 mg/kg; format: functional

Row | SMILES | Activity [1] | T/C [2] [%] | Activity [3] | Activity [4] | T/C [5] [%] | T/C [6] [%] | T/C [7] [%]
1 | COc1cc2ccc(=O)oc2cc1O [SCOPOLETIN] | inactive | 130 | inactive | inactive | 48 |  | 
2 | COc1cc2oc(=O)ccc2cc1C1OC(=O)[C@]2(C)O[C@H]12 (some centres undefined) | inactive |  |  |  |  | 149 | 228
3 | COc1cc2oc(=O)ccc2cc1C1C=C(C)C(=O)O1 (centres undefined) | inactive |  |  |  |  |  | 
